From ChEMBL document CHEMBL1201862, “PubChem BioAssay data set” (2004)
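How tested: cells in 96-well plates exposed to compound for 48 hours at five concentrations. GI50: concentration for 50% inhibition of growth.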 Active and inactive are the calls of the source. Cut-off read from the data, not from the text of the source: active = GI50 up to about 1.1 µM and inactive = higher.

What was measured:
Assay in all cases: DTP human tumour cell line panel, 48 h
A549 = test system: A549
HOP-62 = test system: HOP-62
PC-3 = test system: PC-3
NCI-H23 = test system: NCI-H23
HOP-92 = test system: HOP-92
OVCAR-4 = test system: OVCAR-4
CAKI-1 = test system: CAKI-1
CCRF-CEM = test system: CCRF-CEM
SK-MEL-2 = test system: SK-MEL-2
SF-295 = test system: SF-295
MCF7 = test system: MCF7
MDA-MB-231 = test system: MDA-MB-231
NCI/ADR-RES = test system: NCI/ADR-RES
SF-268 = test system: SF-268
SW-620 = test system: SW-620
SNB-19 = test system: SNB-19
KM12 = test system: KM12
ACHN = test system: ACHN
TK-10 = test system: TK-10
UACC-257 = test system: UACC-257
RXF 393 = test system: RXF 393
M14 = test system: M14
LOX IMVI = test system: LOX IMVI
T47D = test system: T47D
COLO 205 = test system: COLO 205
K562 = test system: K562
U-251 = test system: U-251
UACC-62 = test system: UACC-62
EKVX = test system: EKVX
MDA-N = test system: MDA-N
HCT-116 = test system: HCT-116
IGROV-1 = test system: IGROV-1
NCI-H226 = test system: NCI-H226
MOLT-4 = test system: MOLT-4
NCI-H460 = test system: NCI-H460
HCT-15 = test system: HCT-15
A498 = test system: A498
SF-539 = test system: SF-539
RPMI-8226 = test system: RPMI-8226
Malme-3M = test system: Malme-3M
Hs-578T = test system: Hs-578T
MDA-MB-435 = test system: MDA-MB-435
OVCAR-3 = test system: OVCAR-3
BT-549 = test system: BT-549
OVCAR-5 = test system: OVCAR-5
786-0 = test system: 786-0
SK-OV-3 = test system: SK-OV-3
UO-31 = test system: UO-31
SR = test system: SR
SNB-75 = test system: SNB-75
SK-MEL-5 = test system: SK-MEL-5
NCI-H522 = test system: NCI-H522
HT-29 = test system: HT-29
OVCAR-8 = test system: OVCAR-8

With CN1CCOC1c1ccccc1O (centres undefined) the GI50 (A549) was > 100 µM (inactive), the GI50 (HOP-62) was > 100 µM (inactive) and the GI50 (PC-3) was > 100 µM (inactive). For the same compound, the GI50 (NCI-H23) was > 100 µM (inactive), the GI50 (HOP-92) was > 100 µM (inactive) and the GI50 (OVCAR-4) was > 100 µM (inactive). The GI50 (CAKI-1) was > 100 µM (inactive), the GI50 (CCRF-CEM) was > 100 µM (inactive) and the GI50 (SK-MEL-2) was > 100 µM (inactive). The GI50 (SF-295) was > 100 µM (inactive), the GI50 (MCF7) was > 100 µM (inactive) and the GI50 (MDA-MB-231) was > 100 µM (inactive). The GI50 (NCI/ADR-RES) was > 100 µM (inactive), the GI50 (SF-268) was > 100 µM (inactive) and the GI50 (SW-620) was > 100 µM (inactive). The GI50 (SNB-19) was > 100 µM (inactive), the GI50 (KM12) was > 100 µM (inactive) and the GI50 (ACHN) was > 100 µM (inactive). The GI50 (TK-10) was > 100 µM (inactive), the GI50 (UACC-257) was > 100 µM (inactive) and the GI50 (RXF 393) was > 100 µM (inactive). For the same compound, the GI50 (M14) was > 100 µM (inactive), the GI50 (LOX IMVI) was > 100 µM (inactive) and the GI50 (T47D) was > 100 µM (inactive). For the same compound, the GI50 (COLO 205) was > 100 µM (inactive), the GI50 (K562) was > 100 µM (inactive) and the GI50 (U-251) was > 100 µM (inactive). For the same compound, the GI50 (UACC-62) was > 100 µM (inactive), the GI50 (EKVX) was > 100 µM (inactive) and the GI50 (MDA-N) was > 100 µM (inactive). For the same compound, the GI50 (HCT-116) was > 100 µM (inactive), the GI50 (IGROV-1) was > 100 µM (inactive) and the GI50 (NCI-H226) was > 100 µM (inactive). For the same compound, the GI50 (MOLT-4) was > 100 µM (inactive), the GI50 (NCI-H460) was > 100 µM (inactive) and the GI50 (HCT-15) was greater than 100 µM. For the same compound, the GI50 (A498) was > 100 µM (inactive), the GI50 (SF-539) was > 100 µM (inactive) and the GI50 (RPMI-8226) was > 100 µM (inactive). The GI50 (Malme-3M) was > 100 µM (inactive), the GI50 (Hs-578T) was > 100 µM (inactive) and the GI50 (MDA-MB-435) was > 100 µM (inactive). The GI50 (OVCAR-3) was > 100 µM (inactive), the GI50 (BT-549) was > 100 µM (inactive) and the GI50 (OVCAR-5) was > 100 µM (inactive). The GI50 (786-0) was > 100 µM (inactive), the GI50 (SK-OV-3) was > 100 µM (inactive) and the GI50 (UO-31) was > 100 µM (inactive). For the same compound, the GI50 (SR) was > 100 µM (inactive), the GI50 (SNB-75) was 85.3 µM (inactive) and the GI50 (SK-MEL-5) was > 100 µM (inactive). The GI50 (NCI-H522) was > 100 µM (inactive), the GI50 (HT-29) was > 100 µM (inactive) and the GI50 (OVCAR-8) was > 100 µM (inactive).
